Reference: patent publication US7541173B2, “Solvent tolerant microorganisms and methods of isolation” (E.I. du Pont de Nemours and Company, priority 2006, dated 2009)

Experiments:
[1] = tested on: butanol tolerant Lactobacillus strains; assay type: cell-based; settings: S20 agar or TSA agar, 37° C., 24 to 72 h
Experimental: The square-well microtiter plate was sealed with an adhesive cover (Beckman Coulter Inc.; Catalog No. 538619) and incubated at 37° C. with shaking for up to 72 h. The square-well microtiter plate was used to make a master plate by dispensing 200 μL of culture from each square well into a corresponding well in a “U-bottom” microtiter plate (VWR Scientific Products, West Chester, Pa.; Catalog No. 62409-052).

[2] = tested on: most microorganisms described in the art; settings: liquid medium at 37° C.; cited from earlier work
[3] = tested on: microbial consortium from wastewater sludge samples; settings: 1-butanol 1.6%, chemostat, 37° C.

In the case of 1-butanol, the “1-butanol concentration in agar medium on which isolates grew” value [1] is given as 3%, the “concentration at which growth is totally inhibited” value [2] is given as “less than 2.0 % w/v” and the “cell density after continued incubation” value ([3]; after adaptation) is given as 2.3 OD600. For the same substance, the “cell density after increasing 1-butanol in feed” value ([3]; initial decrease) was “less than 1.5 OD600”.
